# In paper PMC3082441 (Journal of medicinal chemistry, 2008):
# Where two headings read alike, the source gives them in different places.
# Legend:
# human sAC = settings: read-out: reported IC50 against human sAC; cited from earlier work
# CyaC [1] = target: T1, CyaC (Limnospira platensis, UniProt O32393); settings: cited from earlier work
# [2] = test system: endogenous tmACs expressed in HEK293T cells; assay type: biochemical, mammalian; settings: 100 μM compound
# CyaC [3] = target: T1, CyaC
# AC1 = AC1 (Homo sapiens, UniProt Q08828); settings: 100 μM compound; forskolin-stimulated; transfected HEK293T lysate
# AC1, sequence (Q08828 whole entry): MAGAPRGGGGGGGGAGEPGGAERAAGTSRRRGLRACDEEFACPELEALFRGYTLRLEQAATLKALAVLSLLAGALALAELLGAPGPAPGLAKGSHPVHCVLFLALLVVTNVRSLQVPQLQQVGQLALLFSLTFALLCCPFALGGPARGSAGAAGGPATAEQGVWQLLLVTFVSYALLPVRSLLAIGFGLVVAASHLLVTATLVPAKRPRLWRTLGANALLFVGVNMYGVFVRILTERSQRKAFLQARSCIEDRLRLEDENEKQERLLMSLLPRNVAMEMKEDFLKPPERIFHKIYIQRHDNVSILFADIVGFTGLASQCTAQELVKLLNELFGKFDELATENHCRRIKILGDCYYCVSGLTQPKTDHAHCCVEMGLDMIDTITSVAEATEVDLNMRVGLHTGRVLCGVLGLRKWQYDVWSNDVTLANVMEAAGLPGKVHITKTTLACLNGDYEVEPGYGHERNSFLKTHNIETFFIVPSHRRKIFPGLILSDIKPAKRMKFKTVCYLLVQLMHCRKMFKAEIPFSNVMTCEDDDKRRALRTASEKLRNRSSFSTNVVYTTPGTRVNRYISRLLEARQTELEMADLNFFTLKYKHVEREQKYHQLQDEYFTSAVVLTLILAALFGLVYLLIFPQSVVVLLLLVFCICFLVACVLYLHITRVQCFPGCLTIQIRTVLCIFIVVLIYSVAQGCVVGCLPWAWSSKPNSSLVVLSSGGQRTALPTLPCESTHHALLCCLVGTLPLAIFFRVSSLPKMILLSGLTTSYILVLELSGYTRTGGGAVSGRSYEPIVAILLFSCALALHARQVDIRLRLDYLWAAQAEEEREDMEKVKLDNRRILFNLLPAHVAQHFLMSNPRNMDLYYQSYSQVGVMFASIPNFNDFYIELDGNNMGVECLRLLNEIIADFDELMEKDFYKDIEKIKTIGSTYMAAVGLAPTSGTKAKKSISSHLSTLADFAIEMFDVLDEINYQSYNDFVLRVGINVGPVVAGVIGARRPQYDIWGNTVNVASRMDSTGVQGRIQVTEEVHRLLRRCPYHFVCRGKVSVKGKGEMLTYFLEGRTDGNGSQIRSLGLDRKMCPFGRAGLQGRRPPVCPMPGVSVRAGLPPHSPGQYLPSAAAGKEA
# AC5 = AC5 (Homo sapiens, UniProt O95622); settings: 100 μM compound; forskolin-stimulated; transfected HEK293T lysate
# AC5, sequence (O95622 whole entry, species assumed): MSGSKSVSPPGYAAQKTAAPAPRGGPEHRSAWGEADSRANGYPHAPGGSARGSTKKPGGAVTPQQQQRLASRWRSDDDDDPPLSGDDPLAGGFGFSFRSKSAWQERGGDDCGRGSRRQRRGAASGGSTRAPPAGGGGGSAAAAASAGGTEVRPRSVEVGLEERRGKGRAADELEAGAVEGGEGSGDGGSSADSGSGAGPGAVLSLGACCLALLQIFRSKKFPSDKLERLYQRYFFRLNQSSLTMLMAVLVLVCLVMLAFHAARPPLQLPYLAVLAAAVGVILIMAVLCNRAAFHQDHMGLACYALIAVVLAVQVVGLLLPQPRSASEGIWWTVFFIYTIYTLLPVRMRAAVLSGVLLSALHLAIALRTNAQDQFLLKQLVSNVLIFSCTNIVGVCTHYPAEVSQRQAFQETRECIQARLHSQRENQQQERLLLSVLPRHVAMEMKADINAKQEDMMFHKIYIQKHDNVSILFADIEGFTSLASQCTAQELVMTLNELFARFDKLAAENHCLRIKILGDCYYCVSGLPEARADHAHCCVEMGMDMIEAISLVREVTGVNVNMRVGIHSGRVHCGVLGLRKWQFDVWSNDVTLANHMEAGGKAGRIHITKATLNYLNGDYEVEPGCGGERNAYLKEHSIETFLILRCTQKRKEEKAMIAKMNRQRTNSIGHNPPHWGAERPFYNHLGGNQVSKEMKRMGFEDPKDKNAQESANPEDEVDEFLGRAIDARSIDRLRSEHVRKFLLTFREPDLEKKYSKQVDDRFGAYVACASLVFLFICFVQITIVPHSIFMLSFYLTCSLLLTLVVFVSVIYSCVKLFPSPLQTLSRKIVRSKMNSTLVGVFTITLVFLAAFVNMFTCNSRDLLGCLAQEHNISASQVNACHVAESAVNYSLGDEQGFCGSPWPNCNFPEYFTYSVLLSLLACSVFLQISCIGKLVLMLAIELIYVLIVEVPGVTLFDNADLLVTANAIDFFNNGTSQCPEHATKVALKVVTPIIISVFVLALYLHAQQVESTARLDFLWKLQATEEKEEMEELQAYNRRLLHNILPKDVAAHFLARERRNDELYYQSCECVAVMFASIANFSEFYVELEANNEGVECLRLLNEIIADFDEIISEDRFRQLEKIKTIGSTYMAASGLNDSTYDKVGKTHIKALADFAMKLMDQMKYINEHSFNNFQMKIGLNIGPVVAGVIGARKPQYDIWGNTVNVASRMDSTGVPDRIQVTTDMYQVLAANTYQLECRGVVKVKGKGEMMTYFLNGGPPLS
# AC9 = target: T2, AC9 (Homo sapiens, UniProt O60503); settings: 100 μM compound, transfected HEK293T lysate
# T2 sequence (O60503 1-1353): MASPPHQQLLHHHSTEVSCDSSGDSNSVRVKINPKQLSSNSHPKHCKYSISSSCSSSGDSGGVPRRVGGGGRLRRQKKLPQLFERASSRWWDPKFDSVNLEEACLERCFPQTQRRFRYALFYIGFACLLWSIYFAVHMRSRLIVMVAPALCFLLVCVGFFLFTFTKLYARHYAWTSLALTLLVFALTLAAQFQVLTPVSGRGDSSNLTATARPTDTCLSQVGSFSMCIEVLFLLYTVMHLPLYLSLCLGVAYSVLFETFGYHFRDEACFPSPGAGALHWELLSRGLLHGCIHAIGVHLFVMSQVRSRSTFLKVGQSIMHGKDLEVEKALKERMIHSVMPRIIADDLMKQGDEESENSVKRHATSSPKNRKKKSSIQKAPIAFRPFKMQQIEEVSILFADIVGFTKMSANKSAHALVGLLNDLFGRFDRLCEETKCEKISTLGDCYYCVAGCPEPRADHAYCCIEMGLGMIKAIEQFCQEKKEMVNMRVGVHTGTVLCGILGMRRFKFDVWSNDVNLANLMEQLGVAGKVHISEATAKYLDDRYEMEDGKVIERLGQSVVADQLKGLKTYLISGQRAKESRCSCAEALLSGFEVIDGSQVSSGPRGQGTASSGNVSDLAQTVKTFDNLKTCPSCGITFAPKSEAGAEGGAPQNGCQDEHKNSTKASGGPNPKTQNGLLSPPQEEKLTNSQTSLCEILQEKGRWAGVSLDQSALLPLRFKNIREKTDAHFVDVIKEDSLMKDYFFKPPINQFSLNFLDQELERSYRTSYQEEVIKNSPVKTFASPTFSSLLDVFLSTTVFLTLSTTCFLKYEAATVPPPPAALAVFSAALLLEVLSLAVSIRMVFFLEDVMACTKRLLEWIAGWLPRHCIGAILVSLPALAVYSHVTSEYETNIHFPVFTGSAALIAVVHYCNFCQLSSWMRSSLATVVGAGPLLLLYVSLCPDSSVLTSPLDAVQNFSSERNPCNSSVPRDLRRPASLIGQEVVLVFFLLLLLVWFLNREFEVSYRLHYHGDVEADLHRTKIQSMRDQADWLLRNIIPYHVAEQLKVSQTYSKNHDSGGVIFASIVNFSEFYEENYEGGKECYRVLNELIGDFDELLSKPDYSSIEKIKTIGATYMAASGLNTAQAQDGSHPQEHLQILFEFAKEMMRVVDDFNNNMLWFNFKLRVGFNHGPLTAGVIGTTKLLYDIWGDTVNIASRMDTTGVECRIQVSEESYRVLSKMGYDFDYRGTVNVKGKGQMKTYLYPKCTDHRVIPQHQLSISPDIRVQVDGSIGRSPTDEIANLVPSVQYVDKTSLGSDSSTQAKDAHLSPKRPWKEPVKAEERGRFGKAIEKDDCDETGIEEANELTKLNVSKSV
# mammalian sAC = target: T3, mammalian sAC (Homo sapiens, UniProt Q96PN6); experiment: Activity assay with purified, recombinant mammalian sAC; assay type: biochemical, human or rat; settings: dose-response curve
# T3 sequence (Q96PN6 1-469): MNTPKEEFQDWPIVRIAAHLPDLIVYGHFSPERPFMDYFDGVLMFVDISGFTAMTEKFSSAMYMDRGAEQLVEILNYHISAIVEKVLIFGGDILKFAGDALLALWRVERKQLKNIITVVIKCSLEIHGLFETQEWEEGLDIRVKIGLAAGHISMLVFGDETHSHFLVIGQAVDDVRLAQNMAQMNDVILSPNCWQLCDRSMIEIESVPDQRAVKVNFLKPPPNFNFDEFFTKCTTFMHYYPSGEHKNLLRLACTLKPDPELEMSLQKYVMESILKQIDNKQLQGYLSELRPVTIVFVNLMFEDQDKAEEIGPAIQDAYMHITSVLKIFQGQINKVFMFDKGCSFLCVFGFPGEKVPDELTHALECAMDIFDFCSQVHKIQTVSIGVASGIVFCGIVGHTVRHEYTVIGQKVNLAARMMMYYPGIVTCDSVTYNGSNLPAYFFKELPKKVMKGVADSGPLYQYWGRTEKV
# AC2 = AC2 (Homo sapiens, UniProt Q08462)
# AC2, sequence (Q08462 whole entry): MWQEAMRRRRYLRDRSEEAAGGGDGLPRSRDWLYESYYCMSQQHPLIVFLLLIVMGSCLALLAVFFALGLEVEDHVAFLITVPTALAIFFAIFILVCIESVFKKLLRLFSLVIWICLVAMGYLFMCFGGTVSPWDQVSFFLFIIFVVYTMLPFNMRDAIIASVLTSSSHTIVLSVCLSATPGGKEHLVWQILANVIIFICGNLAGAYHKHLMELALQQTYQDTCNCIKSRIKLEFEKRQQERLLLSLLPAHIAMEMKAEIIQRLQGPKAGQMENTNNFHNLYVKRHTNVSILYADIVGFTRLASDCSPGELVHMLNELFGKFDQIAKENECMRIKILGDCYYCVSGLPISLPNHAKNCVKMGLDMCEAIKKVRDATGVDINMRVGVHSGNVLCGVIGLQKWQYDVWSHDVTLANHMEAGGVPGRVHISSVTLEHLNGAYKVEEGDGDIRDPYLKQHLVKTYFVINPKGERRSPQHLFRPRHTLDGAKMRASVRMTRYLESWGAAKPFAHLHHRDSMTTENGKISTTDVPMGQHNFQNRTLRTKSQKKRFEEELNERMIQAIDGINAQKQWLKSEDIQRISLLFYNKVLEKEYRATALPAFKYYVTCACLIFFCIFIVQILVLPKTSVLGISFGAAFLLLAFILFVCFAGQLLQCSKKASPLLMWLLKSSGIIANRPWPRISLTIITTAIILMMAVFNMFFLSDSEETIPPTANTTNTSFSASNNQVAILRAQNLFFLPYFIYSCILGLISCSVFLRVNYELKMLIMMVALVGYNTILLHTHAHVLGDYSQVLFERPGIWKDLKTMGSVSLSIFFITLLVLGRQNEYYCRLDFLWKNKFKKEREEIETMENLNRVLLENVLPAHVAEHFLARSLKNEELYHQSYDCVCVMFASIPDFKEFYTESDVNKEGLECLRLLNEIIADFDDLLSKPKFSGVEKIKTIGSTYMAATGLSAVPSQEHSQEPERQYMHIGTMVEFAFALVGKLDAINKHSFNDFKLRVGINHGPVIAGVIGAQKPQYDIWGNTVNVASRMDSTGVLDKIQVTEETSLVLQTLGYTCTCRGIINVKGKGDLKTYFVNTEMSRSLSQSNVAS
# CyaC [4] = target: T1, CyaC; experiment: biochemical; settings: read-out: IC50 against CyaC in vitro (estimated)
# T1 sequence (O32393 998-1202 limits assumed): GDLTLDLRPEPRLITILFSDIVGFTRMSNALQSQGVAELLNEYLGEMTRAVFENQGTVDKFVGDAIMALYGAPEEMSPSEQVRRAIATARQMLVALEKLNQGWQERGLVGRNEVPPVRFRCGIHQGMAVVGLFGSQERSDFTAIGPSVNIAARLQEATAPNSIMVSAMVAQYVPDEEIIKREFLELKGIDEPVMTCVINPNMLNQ
structure (smiles),measurement,setting,value
"C[C@H]1O[C@@H](n2cnc3c(N)ncnc32)C[C@@H]1OP(=O)(O)OP(=O)(O)OP(=O)(O)O [2′,5′-didesoxy-3′-ATP]",IC50,human sAC,0.7 µM
"C[C@]12CC[C@@H]3c4cc(O)c(O)cc4CC[C@H]3[C@@H]1CC[C@@H]2O [Compound 1, 2-hydroxy-17β-estradiol]",Mode of inhibition with respect to ATP (reported),CyaC [1],noncompetitive inhibitor
"C[C@]12CC[C@H]3[C@@H](CCC4=CC(=O)CC[C@@]43C)[C@@H]1CC[C@@H]2C(=O)COS(=O)(=O)c1ccc(Br)cc1 [Compound 2, 3,20-dioxopregn-4-en-21-yl 4-bromobenzenesulfonate]",Inhibition of forskolin-stimulated AC activity in HEK293T whole cell extracts,[2],no significant inhibition
same,Vmax of CyaC,CyaC [3]; 1 μM inhibitor,0.38 nmol/mg/min
same,Vmax of CyaC,CyaC [3]; […] inhibitor,0.29 nmol/mg/min
same,Vmax of CyaC,CyaC [3]; […] μM inhibitor,0.08 nmol/mg/min
same,Mode of inhibition with respect to ATP,CyaC [3]; various substrate concentrations at fixed inhibitor amounts,noncompetitive inhibitor
same,Inhibition of AC1 activity,AC1,did not significantly inhibit
same,Inhibition of AC5 activity,AC5,did not significantly inhibit
same,Effect on basal AC9 activity,AC9,did not appreciably affect
"O=C(O)c1cc2c(cc1S(=O)(=O)O)C1C(C3C2C2(Cl)C(Cl)=C(Cl)C3(Cl)C2(Cl)Cl)C2(Cl)C(Cl)=C(Cl)C1(Cl)C2(Cl)Cl (stereo not drawn) [Compound 3, 1,2,3,4,5,6,7,8,13,13,14,14-dodecachloro-1,4,4a,4b,5,8,8a, 12b-octahydro-11-sulfo-1,4:5,8-dimethanotriphenylene-10-carboxylic acid]",Hill coefficient for sAC inhibition,mammalian sAC,2.0
same,Inhibition of AC1 activity,AC1,only moderate inhibition
same,Inhibition of basal AC2 activity,"AC2; 100 μM compound, basal, transfected HEK293T lysate",only moderate inhibition
same,Effect on AC2 in the presence of forskolin,"AC2; in the presence of forskolin, data not shown",stimulation
same,Inhibition of AC5 activity,AC5,only moderate inhibition
same,Effect on basal AC9 activity,AC9,only moderate inhibition
"BrC(c1cccc2ccccc12)c1cccc2ccccc12 [Compound 4, 1-(bromo(1-naphthyl)methyl)naphthalene]",potency estimated from few doses,CyaC [4],~200 µM
"C[C@H]1[C@H](C)CC[C@]2(C(=O)O)CC[C@]3(C)C(=CC[C@@H]4[C@@]5(C)C[C@@H](O)[C@H](O)[C@@](C)(CO)[C@@H]5[C@H](O)C[C@]43C)[C@H]12 [Compound 8, 2,3,6,23-tetrahydroxyurs-12-en-28-oic acid]",potency estimated from few doses,CyaC [4],~100 µM
